Results from PMC11950852, “Diversity Scale of Library Matters: Impact of mRNA Library Diversity Scales on the Discovery of Macrocyclic Peptides Targeting a Protein by the RaPID System” (ACS Central Science, 2025).
Where a SMILES comes first, the peptide text is derived from it. Bridges are numbered along the chain shown (N, C = ends). Where no end group is shown, it is not given here.

How the values were obtained:
[1] = molecular target: Fc-fused MET (His-/hFc-tagged human MET ectodomain) (Homo sapiens, UniProt P08581); test: SPR binding kinetics of selected macrocyclic peptides to Fc-fused MET; settings: for kon: pH 7.4, read-out: ka
[2] = molecular target: T1, ectodomain of MET fused to Fc (UniProt P08581 25-932); test: SPR
T1 chain: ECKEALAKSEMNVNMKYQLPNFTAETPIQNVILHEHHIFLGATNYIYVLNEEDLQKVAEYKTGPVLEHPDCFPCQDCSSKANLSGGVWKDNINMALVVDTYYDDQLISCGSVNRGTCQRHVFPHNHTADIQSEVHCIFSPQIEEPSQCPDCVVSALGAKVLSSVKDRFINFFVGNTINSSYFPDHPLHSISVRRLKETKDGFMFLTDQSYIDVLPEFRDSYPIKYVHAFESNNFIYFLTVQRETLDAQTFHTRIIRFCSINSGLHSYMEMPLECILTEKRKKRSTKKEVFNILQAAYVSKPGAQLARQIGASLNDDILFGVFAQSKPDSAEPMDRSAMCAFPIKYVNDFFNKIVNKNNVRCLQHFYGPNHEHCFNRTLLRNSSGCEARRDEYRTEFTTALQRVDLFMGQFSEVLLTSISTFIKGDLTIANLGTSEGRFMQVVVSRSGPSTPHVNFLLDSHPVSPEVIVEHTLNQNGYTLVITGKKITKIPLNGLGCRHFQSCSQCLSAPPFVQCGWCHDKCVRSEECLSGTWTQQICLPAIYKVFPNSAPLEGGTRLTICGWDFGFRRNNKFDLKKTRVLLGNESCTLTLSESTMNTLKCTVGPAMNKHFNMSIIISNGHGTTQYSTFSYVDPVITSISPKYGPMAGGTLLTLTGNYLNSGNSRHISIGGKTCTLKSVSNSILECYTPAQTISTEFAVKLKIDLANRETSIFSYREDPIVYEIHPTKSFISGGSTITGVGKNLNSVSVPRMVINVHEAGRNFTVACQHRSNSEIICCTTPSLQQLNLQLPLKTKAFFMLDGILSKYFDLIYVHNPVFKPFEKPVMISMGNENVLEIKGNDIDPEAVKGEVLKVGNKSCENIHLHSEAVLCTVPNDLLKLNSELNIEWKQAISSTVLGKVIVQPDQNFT

[3] = molecular target: T2, ectodomain of MET fused to Fc (UniProt P08581 25-932); test: SPR; fitted by a 1:1 binding model; who was immobilised and the conditions are in the Supporting Information (not shown); settings: both partners purified
T2 construct: MET (hepatocyte growth factor receptor), a receptor tyrosine kinase; also called MET-Fc; Fc-tagged MET

Molecule: CC[C@H](C)[C@@H]1NC(=O)[C@H](Cc2ccc(O)cc2)NC(=O)CSC[C@@H](C(=O)NCC(N)=O)NC(=O)[C@H](CS)NC(=O)[C@H](CC(N)=O)NC(=O)[C@H](CS)NC(=O)[C@H](CC(N)=O)NC(=O)[C@H](Cc2c[nH]c3ccccc23)NC(=O)[C@H](CC(C)C)NC(=O)[C@H](CCCCN)NC(=O)[C@H](CO)NC(=O)[C@H](CC(N)=O)NC(=O)[C@H](Cc2ccccc2)NC(=O)[C@H](CCCNC(=N)N)NC(=O)[C@H](CC(N)=O)NC(=O)[C@H](Cc2c[nH]c3ccccc23)NC(=O)[C@H](CCC(=O)O)NC1=O [10-4] ({CH2CO}-YIEWNRFNSKLWNCNCCG-NH2; thioether N-17)
- kd ([1]; SPR conditions as E1): 0.00809 s⁻¹
- kon [1]: 26300 M⁻¹ s⁻¹

Molecule: CC(C)C[C@@H]1NC(=O)[C@H]([C@@H](C)O)NC(=O)[C@H](CCCCN)NC(=O)[C@H](C)NC(=O)[C@H](Cc2c[nH]c3ccccc23)NC(=O)[C@H](CCCCN)NC(=O)[C@H](C)NC(=O)[C@H](C(C)C)NC(=O)[C@H](CC(N)=O)NC(=O)[C@H]([C@@H](C)O)NC(=O)[C@H](Cc2c[nH]c3ccccc23)NC(=O)[C@H](CC(N)=O)NC(=O)[C@H](Cc2ccc(O)cc2)NC(=O)[C@H](Cc2ccc(O)cc2)NC(=O)[C@H](Cc2ccccc2)NC(=O)[C@H](Cc2ccc(O)cc2)NC(=O)CSC[C@@H](C(=O)NCC(N)=O)NC1=O [6-2] ({CH2CO}-YFYYNWTNVAKWAKTLCG-NH2; thioether N-17)
- ka ([1]; SPR conditions as E1): 0.725 × 10^5 M^–1 s^–1
- kd ([1]; SPR conditions as E1): 0.0074 s⁻¹
- kd (quoted in text) ([1]; SPR conditions as E1): 7.4 × 10^–3 s^–1
- kon [1]: 72500 M⁻¹ s⁻¹
- fold slower kd compared to 6–1 ([1]; ratio of SPR kd values): 7 fold

Molecule: CC[C@H](C)[C@@H]1NC(=O)[C@H](C(C)C)NC(=O)[C@H](Cc2c[nH]c3ccccc23)NC(=O)[C@H](CC(=O)O)NC(=O)[C@H](CO)NC(=O)[C@H](CO)NC(=O)[C@H](CC(=O)O)NC(=O)[C@H](Cc2ccc(O)cc2)NC(=O)[C@H](Cc2ccc(O)cc2)NC(=O)[C@H](CCCCN)NC(=O)[C@H](Cc2c[nH]c3ccccc23)NC(=O)[C@H](CO)NC(=O)[C@H](CC(C)C)NC(=O)[C@H](Cc2ccc(O)cc2)NC(=O)CSC[C@@H](C(=O)NCC(N)=O)NC(=O)[C@H](CO)NC(=O)[C@H](CC(C)C)NC1=O [14-5] ({CH2CO}-YLSWKYYDSSDWVILSCG-NH2; thioether N-17)
- kd ([1]; SPR conditions as E1): 0.00836 s⁻¹
- kon [1]: 129000 M⁻¹ s⁻¹

Molecule: CC(C)C[C@@H]1NC(=O)[C@H](Cc2ccc(O)cc2)NC(=O)[C@H](Cc2c[nH]c3ccccc23)NC(=O)[C@H](CO)NC(=O)[C@H](Cc2ccc(O)cc2)NC(=O)CSC[C@@H](C(=O)NCC(N)=O)NC(=O)[C@H](Cc2ccccc2)NC(=O)[C@H](CCC(=O)O)NC(=O)[C@H](Cc2ccccc2)NC(=O)[C@H](CCCCN)NC(=O)[C@H](CCCCN)NC(=O)[C@H](Cc2c[nH]c3ccccc23)NC(=O)[C@H](CCC(N)=O)NC(=O)[C@H](C)NC(=O)[C@H](CCC(N)=O)NC(=O)[C@H](Cc2c[nH]c3ccccc23)NC(=O)[C@H](CC(N)=O)NC1=O [6-1] ({CH2CO}-YSWYLNWQAQWKKFEFCG-NH2; thioether N-17)
- Kd ([1]; KD, SPR conditions as E1, 1:1 binding model): 212 nM
- ka ([1]; SPR conditions as E1): 2.44 × 10^5 M^–1 s^–1
- kd ([1]; SPR conditions as E1): 0.0518 s⁻¹
- kd (quoted in text) ([1]; SPR conditions as E1): 51.8 × 10^–3 s^–1
- kon [1]: 244000 M⁻¹ s⁻¹

Molecule: CC(C)C[C@@H]1NC(=O)[C@H](Cc2ccc(O)cc2)NC(=O)[C@H](CCC(=O)O)NC(=O)[C@H](CC(=O)O)NC(=O)[C@H](CCCNC(=N)N)NC(=O)[C@H](Cc2ccc(O)cc2)NC(=O)[C@H](Cc2c[nH]c3ccccc23)NC(=O)[C@H](Cc2ccc(O)cc2)NC(=O)[C@H](Cc2ccc(O)cc2)NC(=O)[C@H](Cc2c[nH]c3ccccc23)NC(=O)[C@H](Cc2c[nH]c3ccccc23)NC(=O)[C@H](Cc2ccc(O)cc2)NC(=O)CSC[C@@H](C(=O)NCC(N)=O)NC(=O)[C@H](CCCNC(=N)N)NC(=O)[C@H]([C@@H](C)O)NC(=O)[C@H](CCCNC(=N)N)NC(=O)[C@H](Cc2c[nH]c3ccccc23)NC1=O [10-6] ({CH2CO}-YWWYYWYRDEYLWRTRCG-NH2; thioether N-17)
- kd ([1]; SPR conditions as E1): 0.00489 s⁻¹
- kon [1]: 22300 M⁻¹ s⁻¹

Molecule: CC[C@H](C)[C@@H]1NC(=O)[C@H](Cc2ccc(O)cc2)NC(=O)CSC[C@@H](C(=O)NCC(N)=O)NC(=O)[C@@H]2CCCN2C(=O)[C@H](CCCNC(=N)N)NC(=O)[C@H](C(C)C)NC(=O)[C@H](Cc2ccccc2)NC(=O)[C@H](Cc2c[nH]c3ccccc23)NC(=O)[C@H](CC(=O)O)NC(=O)[C@H](CCCCN)NC(=O)[C@H](CO)NC(=O)[C@H](C)NC(=O)[C@H](Cc2ccc(O)cc2)NC(=O)[C@H](C)NC(=O)[C@H](Cc2ccccc2)NC(=O)[C@H](Cc2c[nH]c3ccccc23)NC(=O)[C@H](CO)NC1=O [12-1] ({CH2CO}-YISWFAYASKDWFVRPCG-NH2; thioether N-17)
- kd ([1]; SPR conditions as E1): 0.00254 s⁻¹
- kd (quoted in text) ([1]; SPR conditions as E1): 2.54 × 10^–3 s^–1
- kon [1]: 79500 M⁻¹ s⁻¹

B1: 12–2 (peptide)
chain: {CH2CO}-YYSWSGNVSESVKWNSCG-NH2
modifications: thioether N-17
SMILES: CC(C)[C@@H]1NC(=O)[C@H](CC(N)=O)NC(=O)CNC(=O)[C@H](CO)NC(=O)[C@H](Cc2c[nH]c3ccccc23)NC(=O)[C@H](CO)NC(=O)[C@H](Cc2ccc(O)cc2)NC(=O)[C@H](Cc2ccc(O)cc2)NC(=O)CSC[C@@H](C(=O)NCC(N)=O)NC(=O)[C@H](CO)NC(=O)[C@H](CC(N)=O)NC(=O)[C@H](Cc2c[nH]c3ccccc23)NC(=O)[C@H](CCCCN)NC(=O)[C@H](C(C)C)NC(=O)[C@H](CO)NC(=O)[C@H](CCC(=O)O)NC(=O)[C@H](CO)NC1=O
- koff [2]: 0.00413 s⁻¹

B2: 8–2 (peptide)
chain: {CH2CO}-YYHWNGRDGDKVEWVVCG-NH2
modifications: thioether N-17
SMILES: CC(C)[C@@H]1NC(=O)[C@H](CCCCN)NC(=O)[C@H](CC(=O)O)NC(=O)CNC(=O)[C@H](CC(=O)O)NC(=O)[C@H](CCCNC(=N)N)NC(=O)CNC(=O)[C@H](CC(N)=O)NC(=O)[C@H](Cc2c[nH]c3ccccc23)NC(=O)[C@H](Cc2c[nH]cn2)NC(=O)[C@H](Cc2ccc(O)cc2)NC(=O)[C@H](Cc2ccc(O)cc2)NC(=O)CSC[C@@H](C(=O)NCC(N)=O)NC(=O)[C@H](C(C)C)NC(=O)[C@H](C(C)C)NC(=O)[C@H](Cc2c[nH]c3ccccc23)NC(=O)[C@H](CCC(=O)O)NC1=O
- koff [3]: 0.0103 s⁻¹

Molecule: {CH2CO}-YWWYYWYRDEYLWRTRCG (thioether N-17 (inferred)) [10–6]
- koff [2]: 0.00489 s⁻¹

Molecule: {CH2CO}-YWYYTFDGRWEEYDAACG (thioether N-17 (inferred)) [8–3]
- Kd [3]: 199 nM
- koff [3]: 0.0464 s⁻¹

Molecule: {CH2CO}-YWYYTFDGRWKEYGAACG (thioether N-17 (inferred)) [8–1]
- koff [3]: 0.0427 s⁻¹

Molecule: {CH2CO}-YIEWNRFNSKLWNCNCCG (thioether N-17; cysteine pairing not given here) [10–4]
- koff [2]: 0.00809 s⁻¹

Molecule: {CH2CO}-YSWYLNWQAQWKKFEFCG (thioether N-17 (inferred)) [6–1]
- koff [3]: 0.0518 s⁻¹
